According to patent publication US11046720B2, “Dimethylphosphine oxide compound” (GUIZHOU INOCHINI TECHNOLOGY CO., LTD, priority 2018, dated 2021):
Where two headings read alike, the source gives them in different places.

Key:
[1] = target: T1, LRRK2 full-length human recombinant protein (Homo sapiens, UniProt Q5S007); test: In vitro evaluation of LRRK2 kinase inhibitory activity (HTRF / TR-FRET, LRRKtide); format: biochemical; conditions: 57 μM ATP, 0.4 uM Fluorescein-ERM (LRRKtide) peptide
T1 construct: express LRRK2 full-length human recombinant protein in Sf9 cells of insects; GST; made in house; host or cells: Sf9 insect cells (baculovirus)
T1 sequence (Q5S007 whole entry): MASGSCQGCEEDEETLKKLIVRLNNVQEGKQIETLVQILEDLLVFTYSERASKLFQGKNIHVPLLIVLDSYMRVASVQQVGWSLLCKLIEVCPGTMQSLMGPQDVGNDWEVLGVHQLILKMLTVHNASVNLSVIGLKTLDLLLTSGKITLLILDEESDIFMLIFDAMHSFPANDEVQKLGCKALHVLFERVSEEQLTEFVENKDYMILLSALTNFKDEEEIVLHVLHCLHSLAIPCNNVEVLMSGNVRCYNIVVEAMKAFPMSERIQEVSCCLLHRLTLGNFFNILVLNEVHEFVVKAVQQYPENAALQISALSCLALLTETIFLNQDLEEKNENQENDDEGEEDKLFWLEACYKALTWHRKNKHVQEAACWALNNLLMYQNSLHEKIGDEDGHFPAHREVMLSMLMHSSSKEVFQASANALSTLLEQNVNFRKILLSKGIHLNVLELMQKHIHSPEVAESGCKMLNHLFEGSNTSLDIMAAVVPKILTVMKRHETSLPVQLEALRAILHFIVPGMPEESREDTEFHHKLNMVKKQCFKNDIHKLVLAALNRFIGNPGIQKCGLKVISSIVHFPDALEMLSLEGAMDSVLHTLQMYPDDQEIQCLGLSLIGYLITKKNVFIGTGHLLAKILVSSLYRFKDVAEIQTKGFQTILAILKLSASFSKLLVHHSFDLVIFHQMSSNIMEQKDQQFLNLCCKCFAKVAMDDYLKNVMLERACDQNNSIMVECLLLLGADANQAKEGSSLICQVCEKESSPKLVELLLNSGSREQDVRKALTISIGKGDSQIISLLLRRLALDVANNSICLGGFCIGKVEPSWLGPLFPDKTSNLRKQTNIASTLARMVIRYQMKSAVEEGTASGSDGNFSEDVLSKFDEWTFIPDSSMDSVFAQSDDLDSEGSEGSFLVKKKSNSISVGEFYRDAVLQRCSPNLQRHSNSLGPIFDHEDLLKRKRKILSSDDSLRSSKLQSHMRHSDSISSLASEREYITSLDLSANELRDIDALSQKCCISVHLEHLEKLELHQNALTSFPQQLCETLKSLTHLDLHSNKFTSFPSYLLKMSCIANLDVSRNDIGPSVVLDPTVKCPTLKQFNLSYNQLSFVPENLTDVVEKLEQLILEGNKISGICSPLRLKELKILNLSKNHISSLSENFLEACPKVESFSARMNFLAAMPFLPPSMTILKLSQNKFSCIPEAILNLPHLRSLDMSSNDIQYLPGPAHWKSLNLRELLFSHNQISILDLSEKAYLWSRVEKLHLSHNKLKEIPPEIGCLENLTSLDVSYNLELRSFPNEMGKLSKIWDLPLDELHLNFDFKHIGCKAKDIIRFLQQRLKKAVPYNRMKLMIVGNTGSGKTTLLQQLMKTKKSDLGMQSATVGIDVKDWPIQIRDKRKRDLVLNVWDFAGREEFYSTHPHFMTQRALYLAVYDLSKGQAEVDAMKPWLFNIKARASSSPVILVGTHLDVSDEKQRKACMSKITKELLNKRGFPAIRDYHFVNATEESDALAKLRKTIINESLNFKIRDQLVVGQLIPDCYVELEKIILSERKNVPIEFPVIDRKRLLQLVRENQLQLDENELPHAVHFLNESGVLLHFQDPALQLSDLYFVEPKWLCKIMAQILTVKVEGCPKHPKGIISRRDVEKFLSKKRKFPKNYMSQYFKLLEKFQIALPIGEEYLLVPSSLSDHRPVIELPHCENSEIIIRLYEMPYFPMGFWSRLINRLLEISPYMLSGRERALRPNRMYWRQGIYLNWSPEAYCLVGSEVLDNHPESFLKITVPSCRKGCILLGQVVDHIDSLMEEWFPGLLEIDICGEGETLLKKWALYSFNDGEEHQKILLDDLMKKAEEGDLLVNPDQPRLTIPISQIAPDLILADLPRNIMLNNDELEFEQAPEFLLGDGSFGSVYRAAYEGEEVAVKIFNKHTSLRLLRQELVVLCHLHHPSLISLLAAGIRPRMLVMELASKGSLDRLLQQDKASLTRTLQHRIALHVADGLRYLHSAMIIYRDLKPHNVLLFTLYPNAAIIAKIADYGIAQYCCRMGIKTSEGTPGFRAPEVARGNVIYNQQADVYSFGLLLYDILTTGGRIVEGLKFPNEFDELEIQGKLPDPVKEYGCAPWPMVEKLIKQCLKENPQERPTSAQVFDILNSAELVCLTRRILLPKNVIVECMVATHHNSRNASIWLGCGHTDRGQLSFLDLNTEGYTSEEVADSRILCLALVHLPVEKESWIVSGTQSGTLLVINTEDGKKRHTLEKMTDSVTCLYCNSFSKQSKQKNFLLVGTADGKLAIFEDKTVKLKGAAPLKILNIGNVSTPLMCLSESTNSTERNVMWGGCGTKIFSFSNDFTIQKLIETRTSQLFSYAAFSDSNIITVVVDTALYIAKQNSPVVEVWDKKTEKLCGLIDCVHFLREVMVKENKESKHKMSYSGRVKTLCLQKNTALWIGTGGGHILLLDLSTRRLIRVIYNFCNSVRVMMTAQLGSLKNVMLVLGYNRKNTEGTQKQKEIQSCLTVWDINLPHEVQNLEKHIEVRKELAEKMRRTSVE
Experimental: Experimental purpose: to detect transfer of energy signals (ratio of fluorescence signals: […]) after the phosphate group of phosphorylated Fluorescein-ERM (LRRKtide) peptide binds with LanthaScreen® Tb-pERM (pLRRKtide) antibody using homogeneous time-resolved fluorescence. Calculate IC50 for LRRK2 inhibition of the compound to be assayed.
1. Reaction solution: 10 mM 4-(2-hydroxyethyl) piperazine-1-ethanesulfonic acid (pH 7.5); 2 mM magnesium chloride; 0.5 mM glycol-bis-(2-aminoethylether)-N; 0.002% primary alcohol ethoxylate, 1 mM dithiothreitol and 1% DMSO;
2. Assay solution: TR-FRET Dilution Buffer;
3. LRRK2 human recombinant protein: use GST tag and baculovirus to express LRRK2 full-length human recombinant protein in Sf9 cells of insects;
4. Substrate: 0.4 uM Fluorescein-ERM (LRRKtide) peptide; 57 uM ATR
Resonance energy transfer of Fluorescein-ERM (LRRKtide) peptide and LanthaScreen® Tb-pERM (pLRRKtide) antibody between […].
1. Add DMSO solution of the compound to be assayed through the Echo550 non-contact nano-liter acoustic droplet ejection system;
2. Prepare mixed solution of enzyme and polypeptide with freshly prepared reaction solution. Add the mixed solution to the reaction cavity and warm it up at room temperature for 20 minutes in advance;
3. Add 57 μM ATP to initiate reaction, which lasts for 90 minutes at room temperature;
4. Add fluorescein-ERM (LRRKtide) peptide, LanthaScreen® Tb-pERM (pLRRKtide) antibody and 10 mM ethylene diamine tetraacetic acid to the assay system. The reaction lasts for 60 minutes at room temperature. Detect yellow light signals with Em/Ex 520/485.
5. Measure enzyme activity inhibition relative to DMSO blank control group according to the signal ratio, and calculate IC50 by fitting curves with the software XLfit5.

LRRK2 (pSer935) = target: T2, LRRK2 (pSer935) (Homo sapiens, UniProt Q5S007); test: In vitro evaluation of inhibitory activity for LRRK2 cell (pSer935), 293T cells transfected with pcmv-flag-lrrk2, MSD; format: cell-based
T2 construct: expressed in transfected cells; host or cells: 293T cells
T2 sequence (Q5S007 whole entry): as above
Experimental: Take 293T cells out of liquid nitrogen and put them in water at 37° C. After ice has fully thawed, transfer the cells to 5 mL warm culture medium. Discard the supernatant through centrifugation, and culture the suspended cells in the culture medium as new cells.
Culture the 293T cells in the culture medium for two to three days.
Plant 1.4×10^6/293T cells on a culture plate. After two days of culturing, cells will multiply to 5×10^6, so planting cells on N+1 plates is enough for performing experiments on N 96-well plates.
1) Add 5 μl (0.5 μg/μl) pcmv-flag-Irrk2 to 145 μl DMEM culture medium, and mix them evenly with a straw;
6) Incubate the culture plate inside a humidified incubator with 5% carbon dioxide for 20 to 24 hours at 37° C.
3. (Day 3) Plant the 293T Cells on the 96-Well Plate;
3) Transfer 50 μl inhibitor containing culture medium to the cell culture plate;
4) Incubate the culture plate inside a humidified incubator with 5% carbon dioxide for 20 to 24 hours at 37° C.;
5) Extract 300 μl inhibitor containing culture medium with a dropper. Take 200 μl inhibitor containing culture medium and add 100 μl decomposer into the culture medium. After the plate has been sealed, it shall be shaken for 30 minutes at 4° C.
1) Add 2 μg/25 μl labeled antibody to the MSD plate to incubate for 2 hours; (50 μl 3.9 μg/μl Flag antibody+2.5 ml fetal bovine serum per plate). Maintain centrifugation for 10 s (1,000 rpm);
5) Transfer 12.5 μl lysis buffer and 12.5 μl cell lysis buffer to the MSD plate to incubate for 1 hour at room temperature;
7) Dilute ps935 antibody at 1:200, and add 25 μl antibody to incubate for 1 hour;
9) Dilute goat anti-rabbit antibody at 1:500, and add 25 μl antibody to the incubation plate to incubate for 1 hour;
13) After incubation for about 3 minutes, read data over 15 minutes.

[2] = Pharmacokinetic evaluation in C57BL/6 mice, brain tissues and plasma; format: in vivo; conditions: oral, 5 mg/kg; for Kp / AUC(0-t) / Tmax / Cmax / half-life: male, C57BL/6, mouse; for Kp: brain/plasma, read-out: drug concentration ratio between brain tissues and plasma (B/P)
Experimental: Experimental purpose: to study pharmacokinetics of the compounds in vivo in C57BL/6 mice—drug concentration ratio between brain tissues and plasma
Experimental materials: C57BL/6 mice (male, 8 weeks old, weight: 25 g-30 g)
Assay Pharmacokinetic Features of Glires after they are Orally Administered the Compounds According to Standard Schemes.
In the experiment, the candidate compounds are prepared into 1 mg/mL mixed suspension, and mice are orally administered once. The menstruum for oral administration is 10% dimethyl sulfoxide (DMSO)/10% polysorbate/20% PEG-400 aqueous solution. This project uses male C57BL/6 mice, which are orally administered drugs at a dose of 5 mg/kg. Collect the whole brain 0.5, 1, 2 and 4 hours after the administration. Homogenize tissue samples with 15 mM [[…] (pH=7.4) buffer and methanol (volume ratio: 2:1)] at a ratio of 1:5 (w:v). Equally divide the homogenate into 2 samples: one for assay and the other for standby use. Besides, collect plasma 0.5, 1, 2 and 4 hours after administration. Centrifugate with 3,000 g relative centrifugal force within half an hour after collection at about 4° C. for 15 minutes to separate supernatant and obtain plasma samples. Store the plasma samples in polypropylene tubes; rapidly freeze them on dry ice and keep them at −80° C. till LC/MS/MS assay. Add internal standard precipitated protein of acetonitrile solution and fully mix them to extract supernatant samples via centrifugation. Quantitatively analyze plasma concentration by LC-MS/MS assay and calculate pharmacokinetic parameters such as maximal concentration (Cmax), half-life (T1/2), maximal time (Tmax), drug concentration in different tissues after administration (AUC0-last), and drug concentration ratio between brain tissues and plasma (B/P).

[3] = brain tissues, read-out: AUC0-last Brain Tissues
[4] = brain tissues, read-out: Tmax Brain Tissues
[5] = plasma, read-out: AUC0-last Plasma
[6] = plasma, read-out: T1/2 Plasma (converted)
[7] = brain tissues, read-out: T1/2 Brain Tissues (converted)

SMILES: COc1nc(N2CCC3(CCOC3)C2)ccc1Nc1ncc(Cl)c(Nc2ccccc2P(C)(C)=O)n1 (stereo not drawn) [Embodiment 1]
- IC50 [1]: 21 nM

SMILES: COc1nc(N2CCC3(CCCOC3)C2)ccc1Nc1ncc(Cl)c(Nc2ccccc2P(C)(C)=O)n1 (stereo not drawn) [Embodiment 2]
- IC50 [1]: 24.4 nM

SMILES: COc1nc(N2CC3(CCOCC3)C2)ccc1Nc1ncc(Cl)c(Nc2ccccc2P(C)(C)=O)n1 [Embodiment 3]
- IC50 [1]: 6.2 nM
- IC50 (LRRK2 (pSer935)): 4.3 nM
- Kp [2]: 0.14
- AUC(0-t) [2, 3]: 0.192 µM·h
- Tmax [2, 4]: 30 min
- Cmax ([2]; plasma): 1180 nM
- AUC(0-t) [2, 5]: 1.39 µM·h
- half-life [2, 6]: 35.4 min
- Tmax ([2]; plasma, read-out: Tmax Plasma): 30 min
- Cmax Brain Tissues ([2]; brain tissues): 217 nM

SMILES: COc1nc(N2CCC3(CCCCO3)C2)ccc1Nc1ncc(Cl)c(Nc2ccccc2P(C)(C)=O)n1 (stereo not drawn) [Embodiment 4]
- IC50 [1]: 34.2 nM

SMILES: COc1nc(N2CCC3(CCCO3)C2)ccc1Nc1ncc(Cl)c(Nc2ccccc2P(C)(C)=O)n1 (stereo not drawn) [Embodiment 5]
- IC50 [1]: 8.2 nM
- IC50 (LRRK2 (pSer935)): 4 nM

SMILES: COc1nc(N2CC3(CCCOC3)C2)ccc1Nc1ncc(Cl)c(Nc2ccccc2P(C)(C)=O)n1 [Embodiment 6]
- IC50 [1]: 2.9 nM
- IC50 (LRRK2 (pSer935)): 3.3 nM

SMILES: COc1nc(N2CC3(CCCCO3)C2)ccc1Nc1ncc(Cl)c(Nc2ccccc2P(C)(C)=O)n1 [Embodiment 7]
- IC50 [1]: 8.5 nM
- IC50 (LRRK2 (pSer935)): 10.9 nM

SMILES: COc1nc(N2CCC3(CCOCC3)CC2)ccc1Nc1ncc(Cl)c(Nc2ccccc2P(C)(C)=O)n1 [Embodiment 8]
- IC50 [1]: 7.2 nM

SMILES: COc1nc(N2CC3(CCOC3)C2)ccc1Nc1ncc(Cl)c(Nc2ccccc2P(C)(C)=O)n1 [Embodiment 9]
- IC50 [1]: 7.8 nM
- IC50 (LRRK2 (pSer935)): 4.7 nM
- Kp [2]: 0.2
- AUC(0-t) [2, 3]: 0.489 µM·h
- half-life [2, 7]: 21.6 min
- Tmax [2, 4]: 30 min
- Cmax ([2]; plasma): 2600 nM
- AUC(0-t) [2, 5]: 2.48 µM·h
- half-life [2, 6]: 33.6 min
- Tmax ([2]; plasma, read-out: Tmax Plasma): 30 min
- Cmax Brain Tissues ([2]; brain tissues): 604 nM

SMILES: COc1nc(N2CCC3(CCOCC3)C2)ccc1Nc1ncc(Cl)c(Nc2ccccc2P(C)(C)=O)n1 [Embodiment 10]
- IC50 [1]: 21.6 nM

SMILES: COc1nc(N2CC3(CC(OC)C3)C2)ccc1Nc1ncc(Cl)c(Nc2ccccc2P(C)(C)=O)n1 [Embodiment 11]
- IC50 [1]: 5.3 nM
- IC50 (LRRK2 (pSer935)): 4.5 nM
- Kp [2]: 0.41
- AUC(0-t) [2, 3]: 0.597 µM·h
- half-life [2, 7]: 22.2 min
- Tmax [2, 4]: 30 min
- Cmax ([2]; plasma): 1560 nM
- AUC(0-t) [2, 5]: 1.45 µM·h
- half-life [2, 6]: 28.2 min
- Tmax ([2]; plasma, read-out: Tmax Plasma): 30 min
- Cmax Brain Tissues ([2]; brain tissues): 698 nM

SMILES: COc1nc(N2CC3(C2)CC(F)(F)C3)ccc1Nc1ncc(Cl)c(Nc2ccccc2P(C)(C)=O)n1 [Embodiment 13]
- IC50 [1]: 9.1 nM
- Kp [2]: 0.52
- AUC(0-t) [2, 3]: 1.16 µM·h
- half-life [2, 7]: 43.2 min
- Tmax [2, 4]: 30 min
- Cmax ([2]; plasma): 1200 nM
- AUC(0-t) [2, 5]: 2.25 µM·h
- half-life [2, 6]: 58.8 min
- Tmax ([2]; plasma, read-out: Tmax Plasma): 30 min
- Cmax Brain Tissues ([2]; brain tissues): 726 nM

SMILES: COc1nc(N2CC3(CCC3)C2)ccc1Nc1ncc(Cl)c(Nc2ccccc2P(C)(C)=O)n1 [Embodiment 14]
- IC50 [1]: 15.2 nM
- Kp [2]: 0.96
- AUC(0-t) [2, 3]: 4.2 µM·h
- Tmax [2, 4]: 60 min
- Cmax ([2]; plasma): 1650 nM
- AUC(0-t) [2, 5]: 4.39 µM·h
- Tmax ([2]; plasma, read-out: Tmax Plasma): 60 min
- Cmax Brain Tissues ([2]; brain tissues): 2042 nM

SMILES: COc1nc(N2CC3(C2)CC3(F)F)ccc1Nc1ncc(Cl)c(Nc2ccccc2P(C)(C)=O)n1 [Embodiment 15]
- IC50 [1]: 7.4 nM
- Kp [2]: 0.54
- AUC(0-t) [2, 3]: 2.15 µM·h
- half-life [2, 7]: 37.8 min
- Tmax [2, 4]: 30 min
- Cmax ([2]; plasma): 2150 nM
- AUC(0-t) [2, 5]: 4.02 µM·h
- half-life [2, 6]: 45 min
- Tmax ([2]; plasma, read-out: Tmax Plasma): 30 min
- Cmax Brain Tissues ([2]; brain tissues): 1436 nM

SMILES: COc1ncc(N2CC3(CCOC3)C2)cc1Nc1ncc(Cl)c(Nc2ccccc2P(C)(C)=O)n1 [Embodiment 16]
- IC50 [1]: 10.6 nM

SMILES: COc1ncc(N2CCC3(CCOCC3)C2)cc1Nc1ncc(Cl)c(Nc2ccccc2P(C)(C)=O)n1 [Embodiment 17]
- IC50 [1]: 27.7 nM

SMILES: COc1ncc(N2CC3(COC3)C2)cc1Nc1ncc(Cl)c(Nc2ccccc2P(C)(C)=O)n1 [Embodiment 18]
- IC50 [1]: 4.6 nM
- IC50 (LRRK2 (pSer935)): 86.1 nM

SMILES: COc1ncc(N2CC3(CCOCC3)C2)cc1Nc1ncc(Cl)c(Nc2ccccc2P(C)(C)=O)n1 [Embodiment 19]
- IC50 [1]: 11.9 nM

SMILES: COc1c(Nc2ncc(Cl)c(Nc3ccccc3P(C)(C)=O)n2)ccnc1N1CC2(CCOC2)C1 [Embodiment 20]
- IC50 [1]: 1.6 nM
- IC50 (LRRK2 (pSer935)): 22 nM

SMILES: COc1c(Nc2ncc(Cl)c(Nc3ccccc3P(C)(C)=O)n2)ccnc1N1CC2(CCC2)C1 [Embodiment 21]
- IC50 [1]: 36.8 nM

SMILES: COc1c(Nc2ncc(Cl)c(Nc3ccccc3P(C)(C)=O)n2)ccnc1N1CC2(COC2)C1 [Embodiment 22]
- IC50 [1]: 2.6 nM
- IC50 (LRRK2 (pSer935)): 44 nM
